Legend:
Type in all cases: functional
[1] = tested on: K562; assay: Cytotoxicity against human K562 cells after 72 hrs by SRB assay; conditions: K562, 72 h
[2] = tested on: A549; assay: Cytotoxicity against human A549 cells after 72 hrs by SRB assay; conditions: A549, 72 h
[3] = tested on: SK-MEL-28; assay: Cytotoxicity against human SK-MEL-28 cells after 72 hrs by SRB assay; conditions: SK-MEL-28, 72 h
[4] = tested on: HT-29; assay: Cytotoxicity against human HT29 cells after 72 hrs by SRB assay; conditions: HT-29, 72 h
[5] = tested on: LoVo; assay: Cytotoxicity against human LoVo cells after 72 hrs by SRB assay
[6] = tested on: LoVo; assay: Cytotoxicity against human doxorubicin-resistant LoVo cells after 72 hrs by SRB assay
[7] = tested on: DU-145; assay: Cytotoxicity against human DU145 cells after 72 hrs by SRB assay; conditions: DU-145, 72 h
[8] = tested on: LNCaP; assay: Cytotoxicity against human LNCAP cells after 72 hrs by SRB assay
[9] = tested on: SK-BR-3; assay: Cytotoxicity against human SK-BR-3 cells after 72 hrs by SRB assay; conditions: SK-BR-3, 72 h
[10] = tested on: SK-OV-3; assay: Cytotoxicity against human SKOV3 cells after 72 hrs by SRB assay; conditions: SK-OV-3, 72 h
[11] = Cytotoxicity against human IGROV cells after 72 hrs by SRB assay
[12] = Cytotoxicity against human IGROV-ET cells after 72 hrs by SRB assay
[13] = tested on: PANC-1; assay: Cytotoxicity against human PANC1 cells after 72 hrs by SRB assay; conditions: PANC-1, 72 h

Measured: GI50

C[C@H]1CC[C@@]23C[C@]2(C)CCC[C@@H]3[C@@]1(C)CC[C@@]1(C)CCn2cnc3ncnc(c32)N1O [ASMARINE I]
5 µM: [1] | [2] | [3] | [4] | [5] | [6] | [7] | [8] | [9] | [10] | [11] | [12] | [13]

C[C@H]1CC[C@@]23C[C@]2(C)CCC[C@@H]3[C@@]1(C)CC[C@@]1(C)CCn2cnc3ncnc(c32)N1 [ASMARINE J]
5 µM: [1] | [2] | [3] | [4] | [5] | [6] | [7] | [8] | [9] | [10] | [11] | [12] | [13]

C=C1CCC[C@@H]2[C@@](C)(CC[C@@]3(C)CCn4cnc5ncnc(c54)N3)[C@H](C)CC[C@@]12C [ASMARINE K]
5 µM: [1] | [2] | [3] | [4] | [5] | [6] | [7] | [8] | [9] | [10] | [11] | [12] | [13]
